Measured values taken from EPA's CvTdb concentration-time database.

Columns and labels:
Rat [1] = assay: concentration in plasma after dosing; settings: dosed: Free Carbon disulfide, 50 mg/kg, iv, Male, F344
Rat [2] = assay: concentration in plasma after dosing; settings: dosed: Free Carbon disulfide, 10 mg/kg, iv, Male, F344
Rat [3] = assay: concentration in plasma after dosing; settings: dosed: Free Carbon disulfide, 10 mg/kg, iv, Male, F344; remark: listed apart in the source
Rat [4] = assay: concentration in plasma after dosing; settings: dosed: Free Carbon disulfide, iv, Male, F344
Rat [5] = assay: concentration in plasma after dosing; settings: dosed: Free Carbon disulfide, 50 mg/kg, iv, Male, F344; remark: listed apart in the source
Rat [6] = assay: concentration in urine after dosing; settings: dosed: dibromoacetic acid, oral, Male, F344
Rat [7] = assay: concentration in urine after dosing; settings: dosed: dibromoacetic acid, 100 mg/kg, oral, Male, F344
Rat [8] = assay: concentration in urine after dosing; settings: dosed: dibromoacetic acid, 40 mg/kg, oral, Male, F344
Rat [9] = assay: concentration in urine after dosing; settings: dosed: dibromoacetic acid, 40 mg/kg, oral, Male, F344; remark: listed apart in the source
Rat [10] = assay: concentration in urine after dosing; settings: dosed: dibromoacetic acid, 100 mg/kg, oral, Male, F344; remark: listed apart in the source
rat [11] = assay: concentration in blood after dosing; settings: dosed: benzene, 40000 ppm, dermal, duration: 4 hr, male, F344
rat [12] = assay: concentration in adipose after dosing; settings: dosed: benzene, 190 ppm, inhalation, duration: 6 hr, male, Fisher
rat [13] = assay: concentration in blood after dosing; settings: dosed: benzene, 40000 ppm, dermal, duration: 4 hr, male, F344; remark: listed apart in the source
rat [14] = assay: concentration in blood after dosing; settings: dosed: benzene, 40000 ppm, dermal, duration: 4 hr, male, F344; remark: listed apart in the source
rat [15] = assay: concentration in blood after dosing; settings: dosed: benzene, 40000 ppm, dermal, duration: 4 hr, male, F344; remark: listed apart in the source
rat [16] = assay: concentration in blood after dosing; settings: dosed: benzene, 40000 ppm, dermal, duration: 4 hr, male, F344; remark: listed apart in the source

S=C=S [Free Carbon disulfide]
concentration in plasma [µg/g]
Settings | 0.05 h | 1 h | 5 min | 10 min | 20 min | 40 min
Rat [1] | 21.2 | 1.2 | 11 | 6.6 | 4.9 | 1.8
Rat [2] | 5.8 | – | 7.9 | 1.4 | – | –
Rat [3] | 4.2 | – | 2.5 | 1.4 | 0.7 | –
Rat [5] | 20.2 | 2 | 15.9 | 9.5 | 5.6 | 2.6

concentration in plasma [µg/g], Rat [4]
Settings | 0.05 h | 1 h | 2 h | 5 min | 10 min | 20 min | 40 min
10 mg/kg | 5 | – | – | 1.9 | 1.2 | 0.8 | –
50 mg/kg | 13.1 | 1.6 | 0.9 | 8.3 | 6.4 | 6.8 | 4.2

O=CC(=O)O [Glyoxylic acid]
concentration in urine [ng/mL], Rat [6]
Settings | 0 h | 4 h | 8 h | 24 h | 48 h
40 mg/kg | 29800 | 13200 | 27000 | 31800 | 26300
100 mg/kg | 20500 | 25600 | – | 30400 | 54800

concentration in urine [ng/mL]
Settings | 0 h | 2 h | 4 h | 8 h | 24 h | 48 h
Rat [7] | 27400 | 20700 | 28600 | 31200 | 28800 | 47900
Rat [8] | 18400 | 11900 | – | – | 35600 | 37900
Rat [9] | 22300 | – | – | 20700 | 36100 | 34300
Rat [10] | 16100 | – | 25000 | – | 30900 | 34300

c1ccccc1 [benzene]
Settings | concentration in adipose [ng/mL] | concentration in blood [ng/mL]
rat [11], 0.5 h | – | 10000
rat [11], 1 h | – | 9650
rat [11], 2 h | – | 9690
rat [11], 3 h | – | 12300
rat [11], 4 h | – | 10200
rat [12], 0.4898 h | 7580 | –
rat [12], 0.99 h | 19500 | –
rat [12], 1.49 h | 27500 | –
rat [12], 1.989 h | 34600 | –
rat [12], 3.993 h | 106000 | –
rat [12], 5.974 h | 159000 | –
rat [12], 6.485 h | 181000 | –
rat [12], 6.98 h | 142000 | –
rat [12], 7.478 h | 126000 | –
rat [12], 8.014 h | 95900 | –
rat [12], 8.509 h | 63800 | –
rat [12], 8.999 h | 70400 | –
rat [12], 10 h | 41500 | –
rat [12], 11.99 h | 13400 | –
rat [12], 15 h | 8140 | –
rat [13], 0.5 h | – | 7850
rat [13], 1 h | – | 8900
rat [13], 2 h | – | 10100
rat [13], 3 h | – | 10700
rat [13], 4 h | – | 11400
rat [14], 0.5 h | – | 8340
rat [14], 1 h | – | 10300
rat [14], 2 h | – | 13100
rat [14], 3 h | – | 12300
rat [14], 4 h | – | 11500
rat [15], 0.5 h | – | 7670
rat [15], 1 h | – | 8220
rat [15], 2 h | – | 9710
rat [15], 3 h | – | 10600
rat [15], 4 h | – | 11100
rat [16], 0.5 h | – | 7380
rat [16], 1 h | – | 8530
rat [16], 2 h | – | 8050
rat [16], 3 h | – | 10400
rat [16], 4 h | – | 11700
